Source: US7256028B2, “Methods for screening compounds that modulate lipid metabolism” (Xenon Genetics Inc., priority 2000, dated 2007)

Key:
[1] = test system: D6D Promoter (human delta-6-desaturase control region, pRh4002.1); test: CAT reporter assay, basal activity of D6D promoter in ZR-75-1 cell line; format: cell-based; conditions: ZR-75-1 cells transfected with pRh4002.1 (D6D) plus agent; CAT activity normalized to pCat3-Control = 100; pRh4002.1 alone 75.91
[2] = biological target: T1, human delta-5-desaturase (Homo sapiens, UniProt O60427); test: Inhibition of human delta-5-desaturase in spheroplasts of Saccharomyces cerevisiae transformed with pTh5009.1; format: cell-based
T1 construct: expressed in transfected cells; host or cells: Saccharomyces cerevisiae INVSc1 transformed with pTh5009.1 (pYES2/CT backbone), galactose-induced; whole cells or spheroplasts
T1 sequence (O60427 with tags, fused parts or gaps): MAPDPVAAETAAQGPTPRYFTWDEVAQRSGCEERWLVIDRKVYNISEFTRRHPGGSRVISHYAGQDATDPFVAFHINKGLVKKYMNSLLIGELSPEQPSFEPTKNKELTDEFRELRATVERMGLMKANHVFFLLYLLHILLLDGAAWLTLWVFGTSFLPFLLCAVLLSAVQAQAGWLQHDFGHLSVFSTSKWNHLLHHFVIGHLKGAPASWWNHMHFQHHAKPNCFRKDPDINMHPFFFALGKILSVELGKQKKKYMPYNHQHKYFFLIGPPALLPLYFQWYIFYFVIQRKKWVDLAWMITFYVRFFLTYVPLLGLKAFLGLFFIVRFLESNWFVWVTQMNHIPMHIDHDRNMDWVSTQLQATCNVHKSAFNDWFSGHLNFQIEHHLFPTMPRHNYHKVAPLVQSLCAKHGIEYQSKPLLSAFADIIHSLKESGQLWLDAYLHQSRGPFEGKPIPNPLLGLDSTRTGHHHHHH
Description: (§1) After 16 h incubation, spheroplasts were prepared as previously described in Example 8.

[3] = biological target: T2, rat delta-5-desaturase (Rattus norvegicus, UniProt Q920R3, Q29H/R30G); test: Inhibition of rat delta-5-desaturase in spheroplasts of Saccharomyces cerevisiae transformed with pYr5014.1; format: cell-based
T2 construct: A rD5D cDNA fragment spanning nucleotides +1 to +1344 was cloned by RT-PCR using total RNA extracted from rat liver tissue; expressed in transfected cells; host or cells: Saccharomyces cerevisiae INVSc1 transformed with pYr5014.1 (pYES2 backbone), galactose-induced; whole cells or spheroplasts
T2 sequence (Q920R3 1-447 Q29H/R30G): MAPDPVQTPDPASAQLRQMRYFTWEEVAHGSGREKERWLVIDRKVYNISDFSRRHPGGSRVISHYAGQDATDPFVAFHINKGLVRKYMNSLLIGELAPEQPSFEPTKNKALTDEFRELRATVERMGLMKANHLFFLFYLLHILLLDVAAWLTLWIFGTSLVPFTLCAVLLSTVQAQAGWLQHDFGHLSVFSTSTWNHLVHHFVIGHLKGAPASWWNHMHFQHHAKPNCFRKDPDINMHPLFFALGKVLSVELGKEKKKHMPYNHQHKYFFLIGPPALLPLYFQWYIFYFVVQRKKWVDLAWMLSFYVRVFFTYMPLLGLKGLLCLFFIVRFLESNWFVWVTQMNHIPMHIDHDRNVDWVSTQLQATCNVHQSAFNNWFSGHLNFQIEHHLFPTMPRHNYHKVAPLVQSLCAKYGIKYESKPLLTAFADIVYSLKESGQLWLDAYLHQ
Description: as §1

[4] = test system: whole cells of Saccharomyces cerevisiae; test: Cell density (O.D.600) and substrate radioactivity recovered in whole yeast incubated with inhibitor; format: cell-based
Description: (§2) Incubation of Whole Yeast: Saccharomyces cerevisiae transformed with either pYr5014.1 or pTh5009.1 were incubated in a 125 ml Erlenmeyer flask containing 9 ml of SC-U medium with 1% tergitol (O.D.600 0.4, approximately 3.2×10^6 cells/ml) and 200 μl of n-propyl gallate in ethanol (final concentration in the culture ranged between 1.7-14.0 mM). After I h incubation in an orbital incubator at 270 rpm and 30° C., 1 μCi of potassium salt of [1-^14C]-dihomogammalinolenic acid (dissolved in SC-U medium and 1% tergitol) was added to the cell suspension to a final concentration of 2 μM. After 5 h incubation with the inhibitor, cells reached the log phase and the transgene expression was induced with the addition of 1 ml of galactose to a final concentration of 2%. Yeast were further incubated for 19 h (O.D.600 range: 5-10) until they were harvested by centrifugation at 5000×g for 10 minutes at 4° C.

[5] = test system: spheroplasts of Saccharomyces cerevisiae; test: Cell density (O.D.600) and substrate radioactivity recovered in spheroplasts incubated with inhibitor
Source text: Total lipids were extracted and analyzed as described in Example 6.

[6] = test system: fatty acid desaturases; conditions: Kawashima et al., 1996; cited from earlier work
[7] = biological target: T3, delta-5-desaturase (Rattus norvegicus, UniProt Q920R3); test: Inhibition of delta-5-desaturase activity in rat liver microsomes; format: biochemical
T3 construct: from tissue; host or cells: liver microsomes of Wistar rats
T3 sequence (Q920R3 whole entry): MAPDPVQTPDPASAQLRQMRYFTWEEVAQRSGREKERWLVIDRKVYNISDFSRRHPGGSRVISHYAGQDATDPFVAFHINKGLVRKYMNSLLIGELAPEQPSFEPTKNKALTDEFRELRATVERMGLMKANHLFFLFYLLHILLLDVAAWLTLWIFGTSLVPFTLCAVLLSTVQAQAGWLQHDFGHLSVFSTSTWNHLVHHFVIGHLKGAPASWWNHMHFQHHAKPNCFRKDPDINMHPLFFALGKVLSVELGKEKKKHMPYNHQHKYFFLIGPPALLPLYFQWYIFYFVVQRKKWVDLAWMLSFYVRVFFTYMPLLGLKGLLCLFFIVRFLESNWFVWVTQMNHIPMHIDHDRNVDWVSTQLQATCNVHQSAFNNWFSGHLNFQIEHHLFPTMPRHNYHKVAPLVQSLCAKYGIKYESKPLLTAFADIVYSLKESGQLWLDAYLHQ
Description: Preparation rat liver microsomes: Wistar rats under light halothane (15% in mineral oil) anesthesia were sacrificed by exsanguination during periods of high enzyme activity. Livers are immediately rinsed with cold 0.9% NaCl solution, weighed and minced with scissors. All procedures are performed at 4° C. unless specified otherwise. Livers are homogenized in a solution (1:3 w/v) containing 0.25 M sucrose, 62 mM. potassium phosphate buffer (pH 7.0), 0.15 M KCl, 1.5 mM N-acetylcysteine, 5 mM MgCl2, and 0.1 mM EDTA using 4 strokes of a Potter-Elvehjem tissue homogenizer. The homogenate is centrifuged at 10,400×g for 20 min to eliminate mitochondria and cellular debris. The supernatant is filtered through a 3-layer cheesecloth and centrifuged at 105,000×g for 60 min. The microsomal pellet is gently resuspended in the same homogenization solution with a small glass/teflon homogenizer and stored at −70° C. The absence of mitochondrial contamination is enzymatically assessed. The protein concentration is measured using bovine serum albumin as the standard.
Incubation of rat liver microsomes with delta-5-desaturase modulators: Reactions are started by adding 2 mg of microsomal protein to pre-incubated tubes containing 0.20 μCi of the substrate fatty acid (DLL) at a final concentration of 33.3 μM in 1.5 ml of homogenization solution, containing NaF (42 mM), niacinamide (0.33 mM), ATP (1.57 mM), NADH (1.0 mM), coenzyme A (0.09 mM) and a range of concentrations of the enzyme modulators. N-propyl gallate was added to the incubation medium to a final concentration of 0.02-0.32 mM. The tubes are vortexed vigorously and after 15 min incubation in a shaking water bath (37° C.), the reactions are stopped and fatty acids are analyzed as described in Example 6. Alternatively, fatty acid methyl esters are analyzed by capillary column gas chromatography (GC).

[8] = biological target: T1, human delta-5-desaturase; test: Inhibition of human delta-5-desaturase in whole cells of Saccharomyces cerevisiae transformed with pTh5009.1; format: cell-based
Description: as §2
(§3) Calculations: The delta-5-desaturase activity was determined by measuring the conversion of radiolabelled dihomogammalinolenic acid to arachidonic acid (20:3n-6 to 20:4n-6). The percent inhibition was calculated as described elsewhere (Kawashima et al., 1996, Biosci. Biotech. Biochem., 60:1672-1676): % Inhibition=100(activity without the inhibitor−activity with the inhibitor)/activity without the inhibitor

[9] = biological target: T2, rat delta-5-desaturase; test: Inhibition of rat delta-5-desaturase in whole cells of Saccharomyces cerevisiae transformed with pYr5014.1; format: cell-based
Description: as §2, §3

[10] = n-propyl gallate 0.25 mM, 20:3n-6 to 20:4n-6

For `CC/C=C\C/C=C\C/C=C\C/C=C\C/C=C\C/C=C\CCC(=O)O` [DHA, docosahexaenoic acid], the “Percent Activity Compared to Controls” value [1] was 19.82 ± 1.41%.
With `CCCOC(=O)c1cc(O)c(O)c(O)c1` [n-propyl gallate, 3,4,5-Trihydoxybenzoic acid propyl ester] the “% inhibition” value [2, 10] was 14.6%, the “% inhibition” value ([2]; n-propyl gallate 0.50 mM) was 17.6% and the “% inhibition” value ([2]; n-propyl gallate 1.00 mM) was 24.0%. For the same compound, the “% inhibition” value ([2]; n-propyl gallate 2.00 mM) was 41.0%, the “% inhibition” value ([2]; n-propyl gallate 4.00 mM) was 100.0% and the “% inhibition” value ([2]; n-propyl gallate 8.00 mM) was 100.0%. The “% inhibition” value [3, 10] was 4.3%, the “% inhibition” value ([3]; n-propyl gallate 1.00 mM) was 7.0% and the “% inhibition” value ([3]; n-propyl gallate 2.00 mM) was 20.5%. The “% inhibition” value ([3]; n-propyl gallate 4.00 mM) was 50.4%, the “% inhibition” value ([3]; n-propyl gallate 8.00 mM) was 81.9% and the O.D.600 ([4]; n-propyl gallate 1.7 mM, pTh5009.1, without inhibitor 10.9) was 9.0. The O.D.600 ([4]; n-propyl gallate 3.5 mM, pTh5009.1) was 9.9, the O.D.600 ([4]; n-propyl gallate 7.0 mM, pTh5009.1) was 10.5 and the O.D.600 ([4]; n-propyl gallate 7.0 mM, pYr5014.1, without inhibitor 6.7) was 6.5. For the same compound, the O.D.600 ([4]; n-propyl gallate 14.0 mM, pYr5014.1) was 5.4, the O.D.600 ([5]; n-propyl gallate 0.25 mM, pTh5009.1, without inhibitor 2.6) was 2.4 and the O.D.600 ([5]; n-propyl gallate 0.25 mM, pYr5014.1, without inhibitor 3.2) was 2.8. The O.D.600 ([5]; n-propyl gallate 0.50 mM, pTh5009.1) was 2.5, the O.D.600 ([5]; n-propyl gallate 1.00 mM, pTh5009.1) was 2.5 and the O.D.600 ([5]; n-propyl gallate 1.00 mM, pYr5014.1) was 2.9. It also gave an O.D.600 ([5]; n-propyl gallate 2.00 mM, pTh5009.1) of 2.2, an O.D.600 ([5]; n-propyl gallate 2.00 mM, pYr5014.1) of 2.7 and an O.D.600 ([5]; n-propyl gallate 4.00 mM, pTh5009.1) of 2.4. It also gave an O.D.600 ([5]; n-propyl gallate 4.00 mM, pYr5014.1) of 2.9, an O.D.600 ([5]; n-propyl gallate 8.00 mM, pTh5009.1) of 1.2 and an O.D.600 ([5]; n-propyl gallate 8.00 mM, pYr5014.1) of 2.8. The “cytotoxicity (consistent O.D.600 readings)” value ([5]; n-propyl gallate between 0.7-4.0 mM) was “not cytotoxic”, the “type of inhibition of fatty acid desaturases” value [6] was “noncompetitive inhibitor” and the “concentration of the inhibitor at which a plateau of inhibition was reached” value [7] was 0.08 to 0.32 mM. The “% of inhibition” value ([7]; n-propyl gallate 0.02 mM, activity without inhibitor 394 pmol/mg microsomal protein/min) was 62.9%, the “% of inhibition” value ([7]; n-propyl gallate 0.04 mM) was 74.9% and the “% of inhibition” value ([7]; n-propyl gallate 0.08 mM) was 86.4%. For the same compound, the “% of inhibition” value ([7]; n-propyl gallate 0.16 mM) was 88.7%, the “% of inhibition” value ([7]; n-propyl gallate 0.32 mM) was 100.0% and the “% inhibition” value ([8]; n-propyl gallate 1.7 mM, gene induced after addition of inhibitor) was 25.0%. The “% inhibition” value ([8]; n-propyl gallate 3.5 mM) was 63.3%, the “% inhibition” value ([8]; n-propyl gallate 7.0 mM) was 100.0% and the “% inhibition” value ([9]; n-propyl gallate 7.0 mM, gene induced after addition of inhibitor) was 38.9%. The “% inhibition” value ([9]; n-propyl gallate 14.0 mM) was 68.5%.
